Measurements from US20240327372A1, “PREPARATION OF PHENE[…] […] STEREOISOMERS THEREOF AND PRECURSORS THEREOF” (priority 2022, published 2024).

Tests used:
[1] = test system: rat forced swim test (FST); test: Rat forced swim test (FST); assay type: in vivo; settings: 10 mg/kg, IP
Description: All FST studies are performed and scored by an experimenter blind to treatment group and according to standard protocols. Briefly, rats are placed in a circular plexiglass container filled with water. Water temperature is maintained at 22-25° C. and changed for every animal. Day 1 (Training) consists of a 15 min acclimation trial, and Day 2 (Testing, 24 h later) consists of the 5 min test. A time sampling procedure is employed where animals are observed every 5 seconds for the duration of the test session (60 counts or 5 minutes) and scored for immobility (defined as the failure to struggle), swimming (defined as a circular movement around the tank), or climbing (defined as an upwards escape behavior). Data are expressed as the percent of the testing session (e.g., the number of immobility counts divided by 60). A p-value less than 0.05 indicates statistical significance after typical statistical analyses (e.g., unpaired t-test or ANOVA).
To determine that the prodrug and/or enantiomer has an antidepressant-like effect and to compare it to methylone, rats are treated with each compound 30 min prior to testing. Additional tests are run 24, 72, 168 hours post-dose or longer.
Racemic methylone (10 mg/kg, IP) has a maximal antidepressant-like effect in the rat forced swim test (FST), reducing immobility by nearly 100% compared to vehicle treated controls. To determine whether one enantiomer of methylone could mimic the robust antidepressant-like effect of racemic methylone, rats were treated with a single dose of racemic methylone, (R)-methylone, (S)-methylone (all 10 mg/kg, IP) or vehicle 30 min before testing in the FST. […] Therefore, all of the activity of methylone appears to be driven by the activity of one enantiomer ((S)-methylone).

NET [2] = test: NE release study; assay type: biochemical
NET [3] = test: [3H]Norepinephrine uptake inhibition in rat brain synaptosomes; assay type: biochemical; settings: NE
Description: (§1) Materials used were: Neurotransmitters [3H]5-HT (PerkinElmer, NET498001MC) [^3H]Dopamine (PerkinElmer, NET673250UC) [^3H]Norepinephrine (PerkinElmer, NET377250UC); Test Compounds Racemic methylone HCl (Merck, M-140); (R)-methylone HCl (Pisgah Labs); (S)-methylone HCl (Pisgah Labs); Reference Compounds Citalopram (Tocris Bioscience 1427). JHW007 (Tocris Bioscience 4351). Nomifensine (Abcam ab146004).
(§2) Synaptosomes were prepared from Sprague Dawley (200-250 g) rat brain regions (hippocampus for NE, striatum for DA and midbrain for 5-HT) using standard protocols. Tissues were dissected, added to sucrose buffer (0.32 M), homogenized with a dounce-homogenizer and centrifuged at 100×g to remove cells and debris. Supernatant was collected and centrifuged 17,000×g for 10 minutes at 4° C. to pellet the synaptosomes. The pellet was resuspended in fresh assay buffer.
(§3) Uptake assays were carried out in 96-well plates in a final volume of 250 μL per well. To each well was added 150 μL synaptosomes, 50 μL test, non-specific compound or buffer alone. The plate was incubated at 30° C. for 30 minutes with gentle agitation. 50 μL radiolabeled neurotransmitter in buffer was then added to each well to initiate the uptake. The plate was incubated at 30° C. for a further 5 minutes with gentle agitation. The incubation was stopped by vacuum filtration onto presoaked GF/C filters using a 96-well FilterMate™ harvester, followed by 3 washes with ice-cold wash buffer. Filters were then dried under a warm air stream, sealed in polyethylene, scintillation cocktail added, and the radioactivity counted in a Wallac® TriLux 1450 MicroBeta counter.
(§4) For each concentration of drug, non-specific uptake was subtracted from total uptake to give specific uptake. Data was fitted using the non-linear curve fitting routines in Prism® (Graphpad Software Inc) to determine IC50.

SERT [4] = target: T1, SERT (Rattus norvegicus (Rat), UniProt P31652); test: [3H]5-HT uptake inhibition in rat brain synaptosomes; assay type: biochemical
Description: as §1, §2, §3, §4

SERT [5] = target: T1, SERT; test: 5-HT release study; assay type: biochemical
[6] = target: serotonin transporter (SERT) (Rattus norvegicus (Rat), UniProt P31652); test: Competition radioligand binding, [3H]Citalopram, rat brain membranes; settings: 5-HT transporter
Text: (§5) Rat brain (Sprague Dawley, 200-250 g) synaptosomes were isolated from midbrain and hindbrain for serotonin transporter assays, striatum for dopamine transporter assays, and hippocampus plus overlying occipital cortex for norepinephrine transporter assays. Radioligands used were: [^3H]Citalopram 81.4 Ci/mmol (PerkinElmer NET1039250UC; Lot No. 2960876). [^3H]WIN35428 82.8 Ci/mmol (PerkinElmer NET1033250UC; Lot No. 2891473). [^3H]Nisoxetine 79.2 Ci/mmol (PerkinElmer NET1084250UC; Lot No. 2970324). Non-specific compounds used were: Citalopram (Tocris Bioscience 1427). JHW007 (Tocris Bioscience 4351). Nomifensine (Abcam ab146004). Test Compounds for the study were: racemic methylone HCl; (R)-methylone HCl; (S)-methylone HCl.
(§6) For membrane preparations, rat brains were dissected, tissue was added to ice-cold lysis buffer (50 mM Tris HCl; 5 mM MgCl2; 5 mM EDTA; protease inhibitor cocktail) and homogenized. The homogenate was centrifuged at 100×g for 2 minutes and the supernatant divided into polypropylene Eppendorf tubes. The supernatants were centrifuged at 17,000×g for 10 minutes at 4° C. to re-pellet the cell lysate. The pellet was resuspended in fresh wash buffer (50 mM Tris-HCl; 5 mM MgCl2; 5 mM EDTA) and centrifuged a third time at 17,000×g for 10 minutes at 4° C. The pellet was resuspended in wash buffer containing 10% sucrose as a cryoprotectant, divided into aliquots (0.3 mL) and stored at −80° C. A sample of the homogenate was analyzed for protein content using the MERCK® BCA assay. On the day of the assay, the membrane preparation was thawed and the pellet resuspended in final assay buffer.
(§7) Competition binding assays were carried out in 96-well polypropylene plates in a final volume of 250 μL per well. To each well was added 150 μL membranes, 50 μL of test compound, non-specific compound or buffer, and 50 μL radioligand solution in buffer. The plate was incubated at 30° C. for 90 minutes with gentle agitation. The incubation was stopped by vacuum filtration onto presoaked (wash buffer with PEI) GF/C filters using a 96-well FILTERMATE™ harvester, followed by 5 washes with ice-cold wash buffer. Filters were then dried under a warm air stream, sealed in polyethylene, scintillation cocktail added, and the radioactivity counted in a WALLAC® TriLux 1450 MicroBeta counter. For each concentration of drug, non-specific binding was subtracted from total binding to give specific binding. Data was fitted using the non-linear curve fitting routines in PRISM® (Graphpad Software Inc) to determine IC50. Ki was subsequently calculated using the ChengPrusoff equation.

cardiac ion channels = test: In vitro cardiovascular safety screening test (ion channel panel, overall); assay type: cell-based, human; settings: whole panel
Description: An in vitro cardiovascular safety screening test was run to investigate the effects of racemic methylone and two methylone stereoisomers ((R)-methylone and (S)-methylone) on selected ion channels critically linked to cardiovascular function and activity.
Electrophysiological assays were conducted to profile three compounds ((R)-methylone, (S)-methylone, or racemic methylone) for activities on the ion channel targets specified below using the Qube electrophysiological platform. Where presented, IC50 values were determined by a non-linear, least squares regression analysis. Reference standards were run as an integral part of each assay to ensure the validity of the results obtained.
Ion Channels tested were Eurofins Panel Part Number: CPROFullQB2DR Voltage-Gated Sodium: HEK-Nav1.5 (Peak), HEK-Nav1.5 (Late, Antagonist) Voltage-Gated Potassium: HEK-Kv4.3/KChIP2, CHO-hERG, CHO-KCNQ1/minK Voltage-Gated Calcium: HEK-Cav1.2 Inward-Rectifying Voltage-Gated Potassium: HEK-Kir2.1.

DAT [7] = target: T2, DAT (Rattus norvegicus (Rat), UniProt P23977); test: DA release study; assay type: biochemical
[8] = target: norepinephrine transporter (NET); test: Competition radioligand binding, [3H]Nisoxetine, rat brain membranes; settings: NE transporter
Text: as §5, §6, §7

[9] = target: dopamine transporter (DAT) (Rattus norvegicus (Rat), UniProt P23977); test: Competition radioligand binding, [3H]WIN35428, rat brain membranes; settings: DA transporter
Text: as §5, §6, §7

DAT [10] = target: T2, DAT; test: [3H]Dopamine uptake inhibition in rat brain synaptosomes; assay type: biochemical; settings: DA
Description: as §1, §2, §3, §4

mouse model of PTSD = settings: 7.5 mg/kg, 30 minutes prior to extinction training; Young et al. 2015; cited from earlier work
[11] = self-administration, healthy volunteers; cited from earlier work

Row | SMILES | Reduction of immobility compared to vehicle treated controls [1] [%] | EC50 (NET [2]) [nM] | IC50 (NET [3]) [nM] | IC50 (SERT [4]) [nM] | EC50 (SERT [5]) [nM] | IC50 [6] [nM] | Ki ([6]; Cheng-Prusoff) [nM] | Effect on the cardiac ion channels tested (cardiac ion channels) | EC50 (DAT [7]) [nM] | IC50 [8] [nM] | Ki ([8]; Cheng-Prusoff) [nM] | IC50 [9] [nM] | Ki ([9]; Cheng-Prusoff) [nM] | IC50 (DAT [10]) [nM] | Reduced freezing compared to saline injected controls (extinction recall) (mouse model of PTSD) [%] | Systolic and diastolic blood pressure [11]
1 | CNC(C)C(=O)c1ccc2c(c1)OCO2 (racemic) [Racemic methylone] | ~100 | 330 | 355 | 811 | 620 | 12300 | 7440 | do not directly inhibit the activity of cardiac channels | 4790 | 3100 | 1460 | 7110 | 3530 | 1430 | – | –
2 | CNC(C)Cc1ccc2c(c1)OCO2 (stereo not shown) [MDMA, 3,4-methylenedioxymethamphetamine, reference compound] | – | – | – | – | – | – | – | – | – | – | – | – | – | – | 35 | significant increase
